Our source for the mortality values is US20110039700A1, “Method for Improved Utilization of the Production Potential of Transgenic Plants Introduction” (priority 2008, published 2011).

What all share (assay type): in vivo
Assay [1] concerns Spodoptera frugiperda. The assay is described as follows: Foliar application Spodoptera frugiperda/cotton. Particulars: 72 h, read-out: Mortality in % after 3^d. As for the experimental part: Individually potted transgenic cotton plants with Lepidoptera resistance and herbicide resistance (Line DP444 BG/RR) are treated with the desired product against the fall army worm (Spodoptera frugiperda).
(§1) After the desired period of time, the mortality in % is determined. Here 100% means that all caterpillars have been killed; 0% means that none of the caterpillars have been killed.

The subject of the next assay is Spodoptera exigua. The assay is described as follows: Foliar application Spodoptera exigua/maize. The settings on record: 96 h, read-out: Mortality in % after 4^d. As for the experimental part:
Pots containing in each case 5 transgenic maize plants with Lepidoptera, Coleoptera and/or herbicide resistance are treated against the beet army worm (Spodoptera exigua) in 2 replications.
as §1

Assay [2] has as its system Spodoptera frugiperda. The assay is described as follows: Drench application Spodoptera frugiperda/maize. Particulars: soil, 96 h, read-out: Mortality in % after 4^d. As for the experimental part:
Pots containing in each case 5 transgenic maize plants with Lepidoptera, Coleoptera and/or herbicide resistance are treated by drenching against the fall army worm (Spodoptera frugiperda) in 2 replications.
as §1

What is called mortality is the percentage killed. Regarding `CCC(C)(C)C(=O)OC1=C(c2ccc(Cl)cc2Cl)C(=O)OC12CCCCC2` [spirodiclofen], in the assay on Spodoptera frugiperda [1], the mortality at 500 ppm was determined as 0%.
Regarding `Cc1cc(C)c(C2=C(OC(=O)CC(C)(C)C)C3(CCCC3)OC2=O)c(C)c1` [spiromesifen], the figures for the mortality at 100 ppm in the assay on Spodoptera exigua and in the assay with Spodoptera frugiperda [2] were 0% and 10%, respectively.
